The source of these data is patent US20250145585A1, “HETEROCYCLIC INHIBITORS OF IGF-1R FOR TREATMENT OF DISEASE” (HORIZON THERAPEUTICS IRELAND DAC, priority 2023, published 2025).

pIC50: −log10 of the molar value.

T1 sequence (P08069 31-1367): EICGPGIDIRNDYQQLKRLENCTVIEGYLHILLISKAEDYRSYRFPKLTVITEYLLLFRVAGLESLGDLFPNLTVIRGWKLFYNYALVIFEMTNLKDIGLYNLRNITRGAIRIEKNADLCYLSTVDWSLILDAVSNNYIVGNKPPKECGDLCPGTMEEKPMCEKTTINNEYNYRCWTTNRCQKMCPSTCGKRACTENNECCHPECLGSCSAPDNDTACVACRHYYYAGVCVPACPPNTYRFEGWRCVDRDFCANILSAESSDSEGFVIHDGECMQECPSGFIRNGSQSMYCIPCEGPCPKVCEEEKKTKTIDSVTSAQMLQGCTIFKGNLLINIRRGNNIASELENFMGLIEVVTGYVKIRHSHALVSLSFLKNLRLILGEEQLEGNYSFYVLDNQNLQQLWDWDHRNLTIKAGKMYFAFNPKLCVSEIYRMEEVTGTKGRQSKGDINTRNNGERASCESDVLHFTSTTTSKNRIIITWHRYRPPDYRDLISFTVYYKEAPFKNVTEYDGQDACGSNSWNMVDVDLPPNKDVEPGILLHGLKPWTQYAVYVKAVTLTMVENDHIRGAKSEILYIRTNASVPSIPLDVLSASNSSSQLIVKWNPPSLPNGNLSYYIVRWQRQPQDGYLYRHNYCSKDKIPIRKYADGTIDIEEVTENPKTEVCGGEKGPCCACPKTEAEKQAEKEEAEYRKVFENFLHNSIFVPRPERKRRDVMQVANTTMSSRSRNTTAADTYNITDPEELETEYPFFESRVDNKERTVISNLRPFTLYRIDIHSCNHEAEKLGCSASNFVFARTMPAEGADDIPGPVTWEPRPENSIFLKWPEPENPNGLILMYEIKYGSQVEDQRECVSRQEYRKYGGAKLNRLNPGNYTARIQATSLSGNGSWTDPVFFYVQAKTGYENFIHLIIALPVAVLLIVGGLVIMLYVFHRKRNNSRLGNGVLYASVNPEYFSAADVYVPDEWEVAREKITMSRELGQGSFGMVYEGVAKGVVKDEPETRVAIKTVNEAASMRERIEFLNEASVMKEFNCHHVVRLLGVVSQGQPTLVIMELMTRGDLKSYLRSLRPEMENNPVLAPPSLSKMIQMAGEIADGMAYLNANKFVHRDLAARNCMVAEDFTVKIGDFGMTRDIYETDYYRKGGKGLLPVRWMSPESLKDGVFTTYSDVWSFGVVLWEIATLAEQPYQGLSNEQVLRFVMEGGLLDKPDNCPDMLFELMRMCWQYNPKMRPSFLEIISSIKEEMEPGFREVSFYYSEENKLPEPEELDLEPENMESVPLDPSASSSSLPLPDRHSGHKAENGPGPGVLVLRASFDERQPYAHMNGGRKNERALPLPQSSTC

The assay addresses T1, IGF-1R (Homo sapiens, UniProt P08069).
T1 construct: expressed in transfected cells
Kind of assay: Example B-2: IGF-1R Assay (PathHunter cell lines, EC80 agonist challenge, chemiluminescent detection). To be noted: PathHunter cells, compound 60 minutes at 37° C., EC80 agonist 3 hours; read-out: IC50, Biological Activity against IGF-1R (Table B2). Format: cell-based. The protocol:
PathHunter cell lines were expanded from freezer stocks according to standard procedures. Cells were seeded in a total volume of 20 μL into white walled, 384-well microplates and incubated for the appropriate time prior to testing.
Cells are pre-incubated with compound followed by EC80 agonist challenge as follows: • R. 1. Intermediate dilution of sample stocks was performed to generate 5× sample in assay buffer. • 2. 5 μL of 5× sample was added to cells and incubated at 37° C. for 60 minutes. Vehicle concentration was 1%. • 3. 5 IL of 6× EC80 agonist in assay buffer was added to the cells and incubated at room temperature for 3 hours.
Assay signal was generated through a single addition of 12.5 or 15 μL (50% v/v) of PathHunter Detection reagent cocktail for agonist and antagonist assays respectively, followed by a one hour incubation at room temperature. Microplates were read following signal generation with a PerkinElmer Envision™ instrument for chemilumine-scent signal detection.
Compound activity was analyzed using CBIS data analysis suite (ChemInnovation, CA). Percentage inhibition was calculated using the following formula: % Inhibition=100%×(1−(mean RLU of test sample−mean RLU of vehicle control)/(mean RLU of EC80 control−mean RLU of vehicle control)). The activity for representative examples of the invention is shown in the following table, wherein A: IC50≤500 nM; B: 500 nM<IC50≤2 μM; C: 2 μM<IC50≤10 μM; D: IC50>10 μM.
Consider `CC1(C)C(=O)N(c2ccc(C3(C#N)CC3)cc2)C(=O)N1Cc1ccnc2c1CC(=O)N2` [Compound 64, 1-(4-(4,4-dimethyl-2,5-dioxo-3-((2-oxo-2,3-dihydro-1H-pyrrolo[2,3-b]pyridin-4-yl)methyl)imidazolidin-1-yl)phenyl)cyclopropane-1-carbonitrile], for which the pIC50 is 5.70 to 6.30. Take `CC1(C)C(=O)N(c2ccc(S(C)(=O)=O)cc2)C(=O)N1Cc1ccnc(N[C@H]2[C@@H]3COC[C@@H]32)c1` [Compound 337, 1-((2-(((1R,SS,6r)-3-oxabicyclo[3.1.0]hexan-6-yl)amino)pyridin-4-yl)methyl)-5,5-dimethyl-3-(4-(methylsulfonyl)phenyl) imidazolidine-2,4-dione]: the negative-log IC50 (pIC50) is under 5.00.

Consider `CC(C)(C#N)c1ccc(N2C(=O)N(Cc3ccnc(NCC(F)F)c3)C(C)(C)C2=O)cc1` [Compound 154, 2-(4-(3-((2-((2,2-difluoroethyl)amino)pyridin-4-yl)methyl)-4,4-dimethyl-2,5-dioxoimidazolidin-1-yl)phenyl)-2-methylpropanenitrile], for which the pIC50 is 5.70 to 6.30.

`C[C@@H](Nc1cc(CN2C(=O)N(c3ccc4c(c3)N(S(C)(=O)=O)CC43CCC3)C(=O)C2(C)C)ccn1)c1cccnc1` [Compound 242, (R)-5,5-dimethyl-3-(1′-(methylsulfonyl)spiro[cyclobutane-1,3′-indolin]-6′-yl)-1-((2-((1-(pyridin-3-yl)ethyl)amino)pyridin-4-yl)methyl)imidazolidine-2,4-dione]: the pIC50 is at least 6.30.

With `C[C@@H]1CNc2nccc(CN3C(=O)N(c4ccc(C5(C(F)(F)F)CC5)cc4)C(=O)C3(C)C)c2O1` [Compound 27, (R)-5,5-dimethyl-1-((2-methyl-3,4-dihydro-2H-pyrido[3,2-b][1,4]oxazin-8-yl)methyl)-3-(4-(1-(trifluoromethyl)cyclopropyl)phenyl) imidazolidine-2,4-dione], the pIC50 was at least 6.30. Regarding `C[C@H](Nc1cc(CN2C(=O)N(c3ccc(S(=O)(=O)C(F)(F)F)cc3)C(=O)C2(C)C)ccn1)[C@@H]1CCCO1` [Compound 339, 5,5-dimethyl-1-((2-(((S)-1-((S)-tetrahydrofuran-2-yl)ethyl)amino)pyridin-4-yl)methyl)-3-(4-((trifluoromethyl)sulfonyl)phenyl) imidazolidine-2,4-dione], the negative logarithm of the IC50 (pIC50) was 5.70 to 6.30. `CC1(C)C(=O)N(c2ccc(C3(C(F)(F)F)CC3)cc2)C(=O)N1Cc1ccnc(N[C@H]2C[C@H]2F)c1` [Compound 142, 1-((2-(((1S,2R)-2-fluorocyclopropyl)amino)pyridin-4-yl)methyl)-5,5-dimethyl-3-(4-(1-(trifluoromethyl)cyclopropyl)phenyl)imidazolidine-2,4-dione]: the pIC50 is at least 6.30. The result for `CC1C(=O)Nc2nccc(CN3C(=O)N(c4ccc(C5(C(F)(F)F)CC5)cc4)C(=O)C3(C)C)c21` (stereo not drawn) [Compound 31, 5,5-dimethyl-1-((3-methyl-2-oxo-2,3-dihydro-1H-pyrrolo[2,3-b]pyridin-4-yl)methyl)-3-(4-(1-(trifluoromethyl)cyclopropyl)phenyl) imidazolidine-2,4-dione] reads at least 6.30; that for `C[C@H](Nc1cc(CN2C(=O)N(c3ccc4c(c3)N(S(C)(=O)=O)CC43CCC3)C(=O)C2(C)C)ccn1)c1cccnc1` [Compound 243, (S)-5,5-dimethyl-3-(1′-(methylsulfonyl)spiro[cyclobutane-1,3′-indolin]-6′-yl)-1-((2-((1-(pyridin-3-yl)ethyl)amino)pyridin-4-yl)methyl)imidazolidine-2,4-dione], at least 6.30; that for `CC1(C)C(=O)N(c2ccc(S(=O)(=O)C(F)(F)F)cc2)C(=O)N1Cc1ccnc(NC2CC2)c1` [Compound 356, 1-((2-(cyclopropylamino)pyridin-4-yl)methyl)-5,5-dimethyl-3-(4-((trifluoromethyl)sulfonyl)phenyl)imidazolidine-2,4-dione], at least 6.30. For the molecule `CC1(C)C(=O)N(c2ccc3c(c2)N(S(C)(=O)=O)CC32CC2)C(=O)N1Cc1ccnc(N[C@H]2CCOC2)c1` [Compound 223, (S)-5,5-dimethyl-3-(1′-(methylsulfonyl)spiro[cyclopropane-1,3′-indolin]-6′-yl)-1-((2-((tetrahydrofuran-3-yl)amino)pyridin-4-yl)methyl)imidazolidine-2,4-dione], the negative-log IC50 (pIC50) is at least 6.30. On to `CC1(C)C(=O)N(c2ccc(C3(C#N)CC3)c(F)c2)C(=O)N1Cc1ccnc2c1CC(=O)N2` [Compound 71, 1-(4-(4,4-dimethyl-2,5-dioxo-3-((2-oxo-2,3-dihydro-1H-pyrrolo[2,3-b]pyridin-4-yl)methyl)imidazolidin-1-yl)-2-fluorophenyl)cyclopropane-1-carbonitrile], for which the pIC50 is 5.70 to 6.30. In the case of `CC1(C)C(=O)N(c2ccc(C3(C(F)(F)F)CC3)cc2)C(=O)N1Cc1ccnc(NC2CS(=O)(=O)C2)c1` [Compound 141, 1-((2-((1,1-dioxidothietan-3-yl)amino)pyridin-4-yl)methyl)-5,5-dimethyl-3-(4-(1-(trifluoromethyl)cyclopropyl)phenyl) imidazolidine-2,4-dione], the negative logarithm of the IC50 (pIC50) was 5.70 to 6.30.

For `CC(C)Nc1cc(CN2C(=O)N(c3ccc4c(c3)N(S(C)(=O)=O)CC43CCC3)C(=O)C2(C)C)ccn1` [Compound 195, 1-((2-(isopropylamino)pyridin-4-yl)methyl)-5,5-dimethyl-3-(1′-(methylsulfonyl)spiro[cyclobutane-1,3′-indolin]-6′-yl)imidazolidine-2,4-dione], the pIC50 is at least 6.30. Regarding `CN(C)CCOc1cc(N2C(=O)N(Cc3ccnc(N[C@H]4[C@@H]5COC[C@@H]54)c3)C(C)(C)C2=O)ccc1OC(F)(F)F` [Compound 282, 1-((2-(((1R,5S,6r)-3-oxabicyclo[3.1.0]hexan-6-yl)amino)pyridin-4-yl)methyl)-3-(3-(2-(dimethylamino)ethoxy)-4-(trifluoromethoxy)phenyl)-5,5-dimethylimidazolidine-2,4-dione], the pIC50 is at least 6.30. As for `CC1(C)CN(S(C)(=O)=O)c2cc(N3C(=O)N(Cc4ccnc5c4CC(=O)N5)C(C)(C)C3=O)ccc21` [Compound 37, 3-(3,3-dimethyl-1-(methylsulfonyl)indolin-6-yl)-5,5-dimethyl-1-((2-oxo-2,3-dihydro-1H-pyrrolo[2,3-b]pyridin-4-yl)methyl)imidazolidine-2,4-dione], the negative-log IC50 (pIC50) is at least 6.30.

Take `CC1(C)C(=O)N(c2ccc(C3(C(F)(F)F)CC3)cc2)C(=O)N1Cc1ccnc(NCc2cnccn2)c1` [Compound 182, 5,5-dimethyl-1-((2-((pyrazin-2-ylmethyl)amino)pyridin-4-yl)methyl)-3-(4-(1-(trifluoromethyl)cyclopropyl)phenyl) imidazolidine-2,4-dione]: the negative logarithm of the IC50 (pIC50) is at least 6.30. For `CC1(C)C(=O)N(c2ccc3c(c2)N(C(=O)C2CC2)CC32CCC2)C(=O)N1Cc1ccnc(NC2CCOCC2)c1` [Compound 237, 3-(1′-(cyclopropanecarbonyl)spiro [cyclobutane-1,3′-indolin]-6′-yl)-5,5-dimethyl-1-((2-((tetrahydro-2H-pyran-4-yl)amino)pyridin-4-yl)methyl)imidazolidine-2,4-dione], the pIC50 was at least 6.30.

A word on the pIC50: it is the IC50 on a negative log10 scale, so that one unit is a factor of ten.
